Our source for the inhibition values is article PMC6934184, “Selective DNA-PKcs inhibition extends the therapeutic index of localized radiotherapy and chemotherapy” (The Journal of Clinical Investigation, 2019).

In the experiment the target is T1, ACVR1 (ALK2) (Homo sapiens, UniProt Q04771).
T1 construct: purchased Thermo Fisher Scientific (Life Technologies) SelectScreen
The experiment can be described thus: SelectScreen LanthaScreen. It counts as binding. To be noted: read-out: % displacement. The method, boiled down:
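NU5455 was profiled across the SelectScreen Broad panel of kinase activity and binding assays. Z'LYTE reactions such as CSF1R ran at apparent Km ATP, while the Adapta CAMK1 assay used ATP listed as 10. Values are given as percent.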

SMILES strings stand for the structures.

T1 sequence (Q04771 21-509): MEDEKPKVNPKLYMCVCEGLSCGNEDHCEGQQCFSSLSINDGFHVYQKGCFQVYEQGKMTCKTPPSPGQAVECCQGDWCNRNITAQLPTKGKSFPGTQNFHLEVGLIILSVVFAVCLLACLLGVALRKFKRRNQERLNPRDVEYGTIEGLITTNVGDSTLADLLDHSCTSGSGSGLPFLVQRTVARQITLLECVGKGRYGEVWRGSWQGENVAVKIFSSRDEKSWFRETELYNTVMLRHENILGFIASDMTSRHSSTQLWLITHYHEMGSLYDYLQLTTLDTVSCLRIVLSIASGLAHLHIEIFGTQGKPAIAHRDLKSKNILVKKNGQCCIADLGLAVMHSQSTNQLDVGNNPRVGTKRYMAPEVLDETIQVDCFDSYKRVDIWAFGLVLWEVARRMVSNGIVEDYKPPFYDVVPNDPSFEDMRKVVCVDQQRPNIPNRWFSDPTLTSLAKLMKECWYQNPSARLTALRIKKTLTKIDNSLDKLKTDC

Consider `CN(C(=O)CN1CCOCC1)c1ccc2sc3c(-c4cccc5c(=O)cc(N6CC7CCC(C6)O7)oc45)cccc3c2c1` [NU5455], for which the inhibition at 1 µM came out at 0.7%.
